Measured values reported in EP4653451A1, “POLYPEPTIDE COMPOUND AND USE THEREOF” (Chengdu New Radiomedicine Technology Co., Ltd., priority 2023, dated 2024).
Counter-ions that a name gives are not always drawn. Like-named read-outs stand apart in the source and are kept apart here. Numbered stars: 1 amine (or outer) side, 2 acyl side, 3 side chain; on linkers, the order of the positions; unused ones are H or OH. Bridge positions count the residues as written; N and C are the ends. Square brackets hold non-standard residues; d marks the D form. Peptide text beside a SMILES is read from it. * marks the point of attachment. X1 = O=C(O)CN1CCN(CC(=O)O)CCN(CC(=O)NCCSCc2cc(CSC[C@@H](CNC(=O)C3CCCC3)N[*:2])cc(C[*:1])c2)CCN(CC(=O)O)CC1; TBMB(SCH2CH2NH-DOTA) = O=C(O)CN1CCN(CC(=O)O)CCN(CC(=O)NCCSCc2cc(C[*:1])cc(C[*:2])c2)CCN(CC(=O)O)CC1; 1Nal = N[C@@H](Cc1cccc2ccccc12)C(=O)O; mXylylene = c1cc(C[*:1])cc(C[*:2])c1; NH(4-picolyl) = c1cc(CN*)ccn1; β3hC = N[C@@H](CS)CC(=O)O; Nle = CCCC[C@H](N)C(=O)O; Hexanoyl = CCCCCC(=O)*; NHcPent = C1CCC(N*)C1; NHBn = c1ccc(CN*)cc1; NHPh = c1ccc(N*)cc1; NHPentyl = CCCCCN*; X3 = C1C2CC1(N*)C2; X2 = C1CCC(CN*)C1

Tests used:
[1] = Pharmacokinetics after tail vein injection; type: in vivo, CD-1 mice; conditions: iv, 0.2 mg/kg
Experimental: Male CD-1 mice weighing 30-35 g were selected, and a test compound was injected into the tail vein at 0.2 mg/kg. Plasma samples were collected at 5, 15, 30, and 60 min and 2, 4, 8, and 24 h after administration and processed accordingly. The drug content was analyzed by LC-MS/MS.
Among them, compounds 20, 21 and 22 were compounds formed by chelating nonradioactive in with compounds 11, 14 and 16, respectively.

[2] = target: T1, human recombinant FAP protein (Homo sapiens, UniProt Q12884); assay: Inhibitory activity against FAP protease activity (Z-Gly-Pro-AMC fluorescence); type: biochemical
T1 construct: purchased Acrobiosystems FAP-H82Q6
T1 sequence (Q12884 1-760): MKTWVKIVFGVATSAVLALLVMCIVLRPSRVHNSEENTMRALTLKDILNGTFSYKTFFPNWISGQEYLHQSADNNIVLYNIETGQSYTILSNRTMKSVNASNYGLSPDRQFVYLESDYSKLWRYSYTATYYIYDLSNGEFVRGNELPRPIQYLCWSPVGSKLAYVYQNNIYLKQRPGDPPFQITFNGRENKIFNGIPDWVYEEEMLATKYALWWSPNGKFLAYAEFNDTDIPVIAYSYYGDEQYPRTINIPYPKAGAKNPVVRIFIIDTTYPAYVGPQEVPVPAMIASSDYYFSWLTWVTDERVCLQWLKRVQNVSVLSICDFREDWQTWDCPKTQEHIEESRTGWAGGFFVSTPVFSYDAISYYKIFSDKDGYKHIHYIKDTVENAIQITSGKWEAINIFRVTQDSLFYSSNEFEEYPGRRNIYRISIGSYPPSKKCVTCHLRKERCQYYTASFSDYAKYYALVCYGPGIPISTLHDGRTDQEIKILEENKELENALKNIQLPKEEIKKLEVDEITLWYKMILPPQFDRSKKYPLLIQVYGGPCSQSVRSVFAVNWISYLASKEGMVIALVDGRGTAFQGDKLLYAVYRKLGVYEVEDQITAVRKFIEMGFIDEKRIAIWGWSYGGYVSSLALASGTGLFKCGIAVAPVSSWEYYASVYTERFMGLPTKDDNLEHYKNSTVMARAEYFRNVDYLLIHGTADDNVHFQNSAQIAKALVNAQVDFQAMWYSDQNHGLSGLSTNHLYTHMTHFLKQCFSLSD
Experimental: The human recombinant FAP protein (Acrobiosystems, FAP-H82Q6) was diluted to a 125 pM FAP working solution with an assay buffer (50 mM Tris-HCl, 1 M NaCl, 1 mg/mL BSA, pH 7.5), and the FAP substrate (Z-Gly-Pro-AMC (LEONBIO, 68542-93-8)) was diluted to a 150 µM substrate working solution with the assay buffer. 40 µl of FAP working solution and 20 µl of compounds at different concentrations (4-fold dilution) were taken, then 40 µl of substrate working solution was added, and the mixture was uniformly mixed on a shaker at room temperature for 1 min. The uniformly mixed mixture was reacted at room temperature in the dark for 90 min. The fluorescence value Ex = 380 nm/Em = 460 nm was read by using a microplate reader. The original data was saved, and the IC50 value of the compound was obtained by using the original data or the Inhibition% via calculation and analyzing the data with Graphpad PRISM.

[3] = target: T2, human recombinant DPP4 protein (Homo sapiens, UniProt P27487); assay: Inhibitory activity against DPP4 protease activity (H-Gly-Pro-AMC fluorescence); type: biochemical; conditions: 125 pM DPP4 working solution, 90 min at room temperature
T2 construct: purchased Acrobiosystems DP4-H5211
Experimental: The human recombinant DPP4 protein (Acrobiosystems, DP4-H5211) was formulated into a 125 pM working solution with an assay buffer (20 mM Tris-HCl, 100 mM NaCl), and the DPP4 substrate (H-Gly-Pro-AMC.HBr (LEONBIO, 115035-46-6)) was diluted to a 250 µM DPP4 substrate working solution with the assay buffer. 40 µl of DPP4 working solution and 20 µl of compounds at different concentrations (4-fold dilution) were taken, then 40 µl of DPP4 substrate working solution was added, and the mixture was uniformly mixed on a shaker at room temperature for 1 min. The uniformly mixed mixture was reacted at room temperature in the dark for 90 min. Reading was made by microplate reader at excitation and emission wavelengths of 380 nm and 460 nm. The original data was saved, and the IC50 value of the compound was obtained by analyzing the data with Graphpad PRISM.

[4] = 125 pM FAP working solution, 90 min at room temperature, read-out: FAP IC50

T2 sequence (P27487 whole entry): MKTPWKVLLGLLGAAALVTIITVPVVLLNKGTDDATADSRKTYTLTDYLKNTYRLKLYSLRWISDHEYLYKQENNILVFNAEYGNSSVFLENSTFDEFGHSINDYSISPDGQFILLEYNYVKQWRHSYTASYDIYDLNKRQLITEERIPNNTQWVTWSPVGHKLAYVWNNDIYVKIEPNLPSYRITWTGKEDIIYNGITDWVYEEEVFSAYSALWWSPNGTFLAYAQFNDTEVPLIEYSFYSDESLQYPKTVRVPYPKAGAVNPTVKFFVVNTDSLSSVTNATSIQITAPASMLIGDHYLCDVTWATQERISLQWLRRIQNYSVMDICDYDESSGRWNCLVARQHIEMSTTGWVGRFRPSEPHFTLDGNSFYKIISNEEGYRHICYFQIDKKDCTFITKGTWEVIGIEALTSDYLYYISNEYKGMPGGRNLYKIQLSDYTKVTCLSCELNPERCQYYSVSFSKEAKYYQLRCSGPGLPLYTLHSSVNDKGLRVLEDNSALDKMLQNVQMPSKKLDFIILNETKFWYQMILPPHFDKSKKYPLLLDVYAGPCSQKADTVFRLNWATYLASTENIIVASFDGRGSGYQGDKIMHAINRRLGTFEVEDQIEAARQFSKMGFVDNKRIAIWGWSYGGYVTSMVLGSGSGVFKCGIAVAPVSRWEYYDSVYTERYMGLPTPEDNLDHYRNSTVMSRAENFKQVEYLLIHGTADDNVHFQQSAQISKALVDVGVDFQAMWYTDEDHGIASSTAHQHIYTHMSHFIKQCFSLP

SMILES	IC50 [2, 4] [nM]	IC50 [3] [nM]	other results
CCCCCC(=O)N[C@H]1CSCc2cc(CSCCNC(=O)CN3CCN(CC(=O)O)CCN(CC(=O)O)CCN(CC(=O)O)CC3)cc(c2)CSC[C@@H](C(=O)O)NC(=O)[C@H](Cc2ccccc2)NC(=O)[C@H](CCC(N)=O)NC(=O)[C@H]([C@@H](C)O)NC(=O)[C@@H]2CCCN2C(=O)[C@@H]2CCCN2C1=O [Compound 3BP-3623, reference compound]			AUC(0-t) ([1]; mouse, plasma, male CD-1 mice, tail vein, read-out: AUC0-t): 195 ng·h/mL; clearance ([1]; mouse, plasma, male CD-1 mice, tail vein, read-out: Cl (converted)): 17 mL/min/kg; Cmax ([1]; mouse, plasma, male CD-1 mice, tail vein, read-out: Cmax): 594 ng/mL; half-life ([1]; mouse, plasma, male CD-1 mice, tail vein, read-out: T1/2 (converted)): 0.37 h; Vd ([1]; mouse, plasma, male CD-1 mice, tail vein, read-out: Vss): 0.24 L/kg
CCCCCC(=O)N[C@H]1CSCc2nc(CSCCNC(=O)CN3CCN(CC(=O)O)CCN(CC(=O)O)CCN(CC(=O)O)CC3)nc(n2)CSC[C@@H](C(=O)O)NC(=O)[C@H](Cc2ccccc2)NC(=O)[C@H](CCC(N)=O)NC(=O)[C@H]([C@@H](C)O)NC(=O)[C@@H]2CCCN2C(=O)[C@@H]2CCCN2C1=O [Compound 7, Hex-Cys-Pro-Pro-Thr-Gln-Phe-Cys-OH (Cys bridge 2,4,6-tribromomethyl-1,3,5-triazine (DOTA-AET)) trifluoroacetate]	1.53	> 10000	
CCCCCC(=O)N[C@H]1CSCc2cc(CSCCNC(=O)CN3CCN(CC(=O)O)CCN(CC(=O)O)CCN(CC(=O)O)CC3)cc(c2)CSC[C@@H](CC(=O)O)NC(=O)[C@H](Cc2ccccc2)NC(=O)[C@H](CCC(N)=O)NC(=O)[C@H]([C@@H](C)O)NC(=O)[C@@H]2CCCN2C(=O)[C@@H]2CCCN2C1=O [Compound 8, Hex-Cys-Pro-Pro-Thr-Gln-Phe-beta-HomoCys (Cys bridge TBMB (DOTA-AET)) trifluoroacetate]		> 10000	IC50 [2]: 1.18 nM
CCCCCC(=O)N[C@H]1CSCc2cc(CSCCNC(=O)CN3CCN(CC(=O)O)CCN(CC(=O)O)CCN(CC(=O)O)CC3)cc(c2)CSC[C@@H](CNC(=O)CCc2ccc(C(F)(F)F)cc2)NC(=O)[C@H](Cc2cccc3ccccc23)NC(=O)[C@H](CCC(N)=O)NC(=O)[C@H]([C@@H](C)O)NC(=O)[C@@H]2CCCN2C(=O)[C@@H]2CCCN2C1=O [Compound 19, Hex-Cys-Pro-Pro-Thr-Gln-1Nal-Cys-CH2NH-3-(4-trifluoromethylphenyl)propanoic acid (Cys bridge TBMB (DOTA-AET))]	0.98	> 10000	
CCCCCC(=O)N[C@H]1CSCc2cc(CSCCNC(=O)CN3CCN(CC(=O)O)CCN(CC(=O)O)CCN(CC(=O)O)CC3)cc(c2)CSC[C@@H](CC(=O)O)NC(=O)[C@H](Cc2cccc3ccccc23)NC(=O)[C@H](CCC(N)=O)NC(=O)[C@H]([C@@H](C)O)NC(=O)[C@@H]2CCCN2C(=O)[C@@H]2CCCN2C1=O [Compound 20] (Hexanoyl-CPPTQ[1Nal][β3hC]-OH; linker 1-7 via TBMB(SCH2CH2NH-DOTA))			AUC(0-t) ([1]; male, CD-1, mouse, in vivo): 308 ng·h/mL; Cmax ([1]; male, CD-1, mouse, in vivo): 772 ng/mL; Vd ([1]; male, CD-1, mouse, in vivo): 0.52 L/kg; clearance ([1]; male, CD-1, mouse, in vivo): 10.2 mL/min/kg; half-life ([1]; male, CD-1, mouse, in vivo): 1.63 h
CCCCCC(=O)N[C@H]1CSCc2cc(CSCCNC(=O)CN3CCN(CC(=O)O)CCN(CC(=O)O)CCN(CC(=O)O)CC3)cc(c2)CSC[C@@H](CNC(=O)C2CCCC2)NC(=O)[C@H](Cc2ccccc2)NC(=O)[C@H](CCC(N)=O)NC(=O)[C@H]([C@@H](C)O)NC(=O)[C@@H]2CCCN2C(=O)[C@@H]2CCCN2C1=O [Compound 21] (Hexanoyl-CPPTQF; linker 1-C via X1)			AUC(0-t) ([1]; male, CD-1, mouse, in vivo): 634 ng·h/mL; Cmax ([1]; male, CD-1, mouse, in vivo): 1010 ng/mL; Vd ([1]; male, CD-1, mouse, in vivo): 0.22 L/kg; clearance ([1]; male, CD-1, mouse, in vivo): 5.17 mL/min/kg; half-life ([1]; male, CD-1, mouse, in vivo): 1.26 h
CCCCCC(=O)N[C@H]1CSCc2cccc(c2)CSC[C@@H](CC(N)=O)NC(=O)[C@H](Cc2cccc3ccccc23)NC(=O)[C@H](CCC(N)=O)NC(=O)[C@H]([C@@H](C)O)NC(=O)[C@@H]2CCCN2C(=O)[C@@H]2CCCN2C1=O [Compound 31] (Hexanoyl-CPPTQ[1Nal][β3hC]-NH2; linker 1-7 via mXylylene)	1.61	> 10000	
CCCCCNC(=O)C[C@@H]1CSCc2cccc(c2)CSC[C@H](NC(=O)CCCCC)C(=O)N2CCC[C@H]2C(=O)N2CCC[C@H]2C(=O)N[C@@H]([C@@H](C)O)C(=O)N[C@@H](CCC(N)=O)C(=O)N[C@@H](Cc2cccc3ccccc23)C(=O)N1 [Compound 32] (Hexanoyl-CPPTQ[1Nal][β3hC]-NHPentyl; linker 1-7 via mXylylene)	3.35	> 10000	
CCCCCC(=O)N[C@H]1CSCc2cccc(c2)CSC[C@@H](CC(=O)NCc2ccccc2)NC(=O)[C@H](Cc2cccc3ccccc23)NC(=O)[C@H](CCC(N)=O)NC(=O)[C@H]([C@@H](C)O)NC(=O)[C@@H]2CCCN2C(=O)[C@@H]2CCCN2C1=O [Compound 33] (Hexanoyl-CPPTQ[1Nal][β3hC]-NHBn; linker 1-7 via mXylylene)	2.9	> 10000	
CCCCCC(=O)N[C@H]1CSCc2cccc(c2)CSC[C@@H](CC(=O)NC2CCCC2)NC(=O)[C@H](Cc2cccc3ccccc23)NC(=O)[C@H](CCC(N)=O)NC(=O)[C@H]([C@@H](C)O)NC(=O)[C@@H]2CCCN2C(=O)[C@@H]2CCCN2C1=O [Compound 34] (Hexanoyl-CPPTQ[1Nal][β3hC]-NHcPent; linker 1-7 via mXylylene)	5.92	> 10000	
CCCCCC(=O)N[C@H]1CSCc2cccc(c2)CSC[C@@H](CC(=O)NCC2CCCC2)NC(=O)[C@H](Cc2cccc3ccccc23)NC(=O)[C@H](CCC(N)=O)NC(=O)[C@H]([C@@H](C)O)NC(=O)[C@@H]2CCCN2C(=O)[C@@H]2CCCN2C1=O [Compound 35] (Hexanoyl-CPPTQ[1Nal][β3hC]-X2; linker 1-7 via mXylylene)	6.62	> 10000	
CCCCCC(=O)N[C@H]1CSCc2cccc(c2)CSC[C@@H](CC(=O)Nc2ccccc2)NC(=O)[C@H](Cc2cccc3ccccc23)NC(=O)[C@H](CCC(N)=O)NC(=O)[C@H]([C@@H](C)O)NC(=O)[C@@H]2CCCN2C(=O)[C@@H]2CCCN2C1=O [Compound 36] (Hexanoyl-CPPTQ[1Nal][β3hC]-NHPh; linker 1-7 via mXylylene)	4.18	> 10000	
CCCCCC(=O)N[C@H]1CSCc2cccc(c2)CSC[C@@H](CC(=O)NCc2ccncc2)NC(=O)[C@H](Cc2cccc3ccccc23)NC(=O)[C@H](CCC(N)=O)NC(=O)[C@H]([C@@H](C)O)NC(=O)[C@@H]2CCCN2C(=O)[C@@H]2CCCN2C1=O [Compound 37] (Hexanoyl-CPPTQ[1Nal][β3hC]-{NH(4-picolyl)}; linker 1-7 via mXylylene)	4.67	> 10000	
CCCCCC(=O)N[C@H]1CSCc2cccc(c2)CSC[C@@H](CC(=O)NC23CC(C2)C3)NC(=O)[C@H](Cc2cccc3ccccc23)NC(=O)[C@H](CCC(N)=O)NC(=O)[C@H]([C@@H](C)O)NC(=O)[C@@H]2CCCN2C(=O)[C@@H]2CCCN2C1=O [Compound 38] (Hexanoyl-CPPTQ[1Nal][β3hC]-X3; linker 1-7 via mXylylene)	4.12	> 10000	
CCCC[C@H](N)C(=O)N[C@H]1CSCc2cccc(c2)CSC[C@@H](CC(=O)O)NC(=O)[C@H](Cc2cccc3ccccc23)NC(=O)[C@H](CCC(N)=O)NC(=O)[C@H]([C@@H](C)O)NC(=O)[C@@H]2CCCN2C(=O)[C@@H]2CCCN2C1=O [Compound 39] (H-[Nle]CPPTQ[1Nal][β3hC]-OH; linker 2-8 via mXylylene)	5.31	> 10000	
